According to patent publication EP1202975B1, “SUBSTITUTED POLYCYCLIC ARYL AND HETEROARYL PYRAZINONES USEFUL FOR SELECTIVE INHIBITION OF THE COAGULATION CASCADE” (Pharmacia Corporation, priority 1999, dated 2000):
Read-outs that look alike come from different tables or passages of the source.

Legend:
[1] = biological target: T1, TF-VIIa (Homo sapiens, UniProt P08709); test: TF-VIIa Assay; format: biochemical
T1 construct: 2nM recombinant human factor VIIa; purchased American Diagnostica, Greenwich CT; host or cells: soluble TF made in house in E. coli

[2] = biological target: Human factor Xa (Homo sapiens, UniProt P00742)
[3] = read-out: IC50 or % Inhibition TF-VIIa (30 µM); cells given as a plain number (IC50)
[4] = cells given as a plain number (IC50); read-out: IC50 or % Inhibition TF-VIIa (30 µM)

T1 sequence (P08709 213-466 limits assumed): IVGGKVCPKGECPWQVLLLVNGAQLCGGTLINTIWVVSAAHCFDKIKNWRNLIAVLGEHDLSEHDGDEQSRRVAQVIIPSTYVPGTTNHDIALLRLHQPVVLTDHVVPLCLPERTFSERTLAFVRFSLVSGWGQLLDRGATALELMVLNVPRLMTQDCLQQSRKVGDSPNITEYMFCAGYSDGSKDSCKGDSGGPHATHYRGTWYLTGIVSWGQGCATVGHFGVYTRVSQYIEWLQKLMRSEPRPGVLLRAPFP
T1 sequence (P08709 61-212 limits assumed): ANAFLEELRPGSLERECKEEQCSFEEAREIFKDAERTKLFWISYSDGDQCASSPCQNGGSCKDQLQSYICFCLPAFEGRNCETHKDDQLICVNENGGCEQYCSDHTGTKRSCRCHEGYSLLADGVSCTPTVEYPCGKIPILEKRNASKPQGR
T1 sequence (P13726 33-251 partner limits assumed): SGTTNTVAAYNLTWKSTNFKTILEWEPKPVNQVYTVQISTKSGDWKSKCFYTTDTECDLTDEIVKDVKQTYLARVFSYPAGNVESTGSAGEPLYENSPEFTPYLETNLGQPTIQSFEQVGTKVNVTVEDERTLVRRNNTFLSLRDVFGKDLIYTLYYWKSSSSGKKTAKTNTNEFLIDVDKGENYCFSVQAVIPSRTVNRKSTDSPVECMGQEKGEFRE
Chain of Human factor Xa (P00742 235-488 limits assumed): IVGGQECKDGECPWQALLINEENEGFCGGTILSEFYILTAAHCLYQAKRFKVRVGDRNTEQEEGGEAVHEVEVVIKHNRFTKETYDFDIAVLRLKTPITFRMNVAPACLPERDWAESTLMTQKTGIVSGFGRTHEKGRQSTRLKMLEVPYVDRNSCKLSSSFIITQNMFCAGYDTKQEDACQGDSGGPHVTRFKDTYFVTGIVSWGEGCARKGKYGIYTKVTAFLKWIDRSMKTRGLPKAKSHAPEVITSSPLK
Chain of Human factor Xa (P00742 41-179 limits assumed): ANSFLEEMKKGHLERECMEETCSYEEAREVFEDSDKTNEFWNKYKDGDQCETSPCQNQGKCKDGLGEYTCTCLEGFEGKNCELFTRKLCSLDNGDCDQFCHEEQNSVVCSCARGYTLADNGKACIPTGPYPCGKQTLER

| Structure (SMILES) | % Inhibition TF-VIIa (100 µM) ([1]; 100 µM) [%] | further results |
| --- | --- | --- |
| Cc1c(Cl)nc(NCc2ccccc2)c(=O)n1CC(=O)NCc1ccc(C(=N)N)cc1 [1471-1] |  | IC50 [1, 3]: 8.17 µM; IC50 or % Inhibition Factor Xa (30 µM) [2]: 10% |
| Cc1c(Cl)nc(NCCc2ccc(Cl)cc2)c(=O)n1CC(=O)NCc1ccc(C(=N)N)cc1 [1471-2] |  | IC50 [1, 3]: 3.62 µM; IC50 or % Inhibition Factor Xa (30 µM) [2]: 10% |
| Cc1c(Cl)nc(NCc2ccncc2)c(=O)n1CC(=O)NCc1ccc(C(=N)N)cc1 [1471-3] |  | IC50 [1, 3]: 13.6 µM; IC50 or % Inhibition Factor Xa (30 µM) [2]: 0% |
| Cc1c(Cl)nc(NCCN2CCOCC2)c(=O)n1CC(=O)NCc1ccc(C(=N)N)cc1 [1471-4] |  | IC50 [1, 3]: 29.4 µM; IC50 or % Inhibition Factor Xa (30 µM) [2]: 0% |
| Cc1c(Cl)nc(NCCc2ccncc2)c(=O)n1CC(=O)NCc1ccc(C(=N)N)cc1 [1471-5] |  | IC50 [1, 3]: 8.69 µM; IC50 or % Inhibition Factor Xa (30 µM) [2]: 12% |
| Cc1c(Cl)nc(NCCc2cccc(Cl)c2)c(=O)n1CC(=O)NCc1ccc(C(=N)N)cc1 [1471-6] |  | IC50 [1, 3]: 2.85 µM; IC50 or % Inhibition Factor Xa (30 µM) [2]: 14% |
| Cc1c(Cl)nc(NCCc2ccccc2)c(=O)n1CC(=O)NCc1ccc(C(=N)N)cc1 [1471-7] |  | IC50 [1, 4]: 4.28 µM; IC50 or % Inhibition Factor Xa (30 µM) [2]: 4% |
| Cc1c(Cl)nc(NCCc2cccnc2)c(=O)n1CC(=O)NCc1ccc(C(=N)N)cc1 [1471-8] |  | IC50 [1, 3]: 3.86 µM; IC50 or % Inhibition Factor Xa (30 µM) [2]: 27% |
| N=C(N)c1ccc(CNC(=O)Cn2c(-c3ccccc3)c(Cl)nc(NCCc3cccc(Cl)c3)c2=O)cc1 [1471-14] |  | IC50 [1, 4]: 0.18 µM |
| N=C(N)c1ccc(CNC(=O)Cn2c(-c3ccc(Cl)cc3)c(Cl)nc(NCc3ccccc3)c2=O)cc1 [1471-17] |  | IC50 [1, 3]: 11 µM |
| N=C(N)c1ccc(CNC(=O)Cn2c(-c3ccc(Cl)cc3)c(Cl)nc(NCCc3ccncc3)c2=O)cc1 [1471-21] |  | IC50 [1, 3]: 8.18 µM |
| N=C(N)c1ccc(CNC(=O)Cn2c(-c3ccc(Cl)cc3)c(Cl)nc(NCCc3cccnc3)c2=O)cc1 [1471-24] |  | IC50 [1, 3]: 10 µM |
| N=C(N)c1ccc(CNC(=O)Cn2c(-c3cccc(N)c3)c(Cl)nc(NCCN3CCCC3)c2=O)c(F)c1 [1543-37] |  | IC50 ([1]; read-out: IC50 or % Inhibition TF-VIIa (30 µM); cells without % sign: IC50): 1.23 µM |
| Nc1cccc(-c2c(Cl)nc(NC3CCC3)c(=O)n2CC(=O)NCc2ccc(C3=NCCN3)cc2)c1 [Example 27] |  | IC50 [1, 4]: 12.5 µM |
| NCc1ccc(CNC(=O)Cn2c(-c3cccc(N)c3)c(Cl)nc(NC3CCC3)c2=O)cc1 [Example 28] |  | IC50 [1, 4]: 3 µM |
| O=C(Cn1c(-c2ccc(Cl)cc2)c(Cl)nc(NCc2ccccc2)c1=O)NCCc1ccncc1 [Example E-0017] | 0 |  |
| O=C(Cn1c(-c2ccc(Cl)cc2)c(Cl)nc(NCCc2ccccc2)c1=O)NCCc1ccncc1 [Example E-0018] | 1 |  |
| O=C(Cn1c(-c2ccc(Cl)cc2)c(Cl)nc(NCCc2cccc(Cl)c2)c1=O)NCCc1ccncc1 [Example E-0019] | 0 |  |
| O=C(Cn1c(-c2ccc(Cl)cc2)c(Cl)nc(NCCc2ccc(Cl)cc2)c1=O)NCCc1ccncc1 [Example E-0020] | 0 |  |
| O=C(Cn1c(-c2ccc(Cl)cc2)c(Cl)nc(NCCc2cccnc2)c1=O)NCCc1ccncc1 [Example E-0021] | 0 |  |

| Structure (SMILES) | % Inhibition TF-VIIa (100 µM) ([1]; 100 µM) [%] | further results |
| --- | --- | --- |
| O=C(Cn1c(-c2ccc(Cl)cc2)c(Cl)nc(NCCc2ccncc2)c1=O)NCCc1ccncc1 [Example E-0022] | 0 |  |
| O=C(Cn1c(-c2ccc(Cl)cc2)c(Cl)nc(NCCN2CCOCC2)c1=O)NCCc1ccncc1 [Example E-0023] | 0 |  |
| O=C(Cn1c(-c2ccc(Cl)cc2)c(Cl)nc(NCc2ccncc2)c1=O)NCCc1ccncc1 [Example E-0024] | 0 |  |
| O=C(Cn1c(-c2ccc(Cl)cc2)c(Cl)nc(NCc2ccccc2)c1=O)NCCc1ccncc1 [Example E-0025] | 0 |  |
| O=C(Cn1c(-c2ccc(Cl)cc2)c(Cl)nc(NCCc2ccccc2)c1=O)NCCc1ccncc1 [Example E-0026] | 0 |  |
| O=C(Cn1c(-c2ccc(Cl)cc2)c(Cl)nc(NCCc2ccc(Cl)cc2)c1=O)NCCc1ccncc1 [Example E-0028] | 0 |  |
| O=C(Cn1c(-c2ccc(Cl)cc2)c(Cl)nc(NCCc2cccnc2)c1=O)NCCc1ccncc1 [Example E-0029] | 0 |  |
| O=C(Cn1c(-c2ccc(Cl)cc2)c(Cl)nc(NCCc2ccncc2)c1=O)NCCc1ccncc1 [Example E-0030] | 0 |  |
| O=C(Cn1c(-c2ccc(Cl)cc2)c(Cl)nc(NCc2ccncc2)c1=O)NCCc1ccncc1 [Example E-0032] | 0 |  |
| COc1ccc(-c2c(Cl)nc(NCCc3ccccc3)c(=O)n2CC(=O)NCCc2ccncc2)cc1 [Example E-0034] | 0 |  |
| COc1ccc(-c2c(Cl)nc(NCCc3cccc(Cl)c3)c(=O)n2CC(=O)NCCc2ccncc2)cc1 [Example E-0035] | 4 |  |
| COc1ccc(-c2c(Cl)nc(NCCc3ccc(Cl)cc3)c(=O)n2CC(=O)NCCc2ccncc2)cc1 [Example E-0036] | 0 |  |
| O=C(Cn1c(-c2ccc(-c3ccccc3)cc2)c(Cl)nc(NCc2ccccc2)c1=O)NCCc1ccncc1 [Example E-0049] | 2 |  |
| O=C(Cn1c(-c2ccc(-c3ccccc3)cc2)c(Cl)nc(NCCc2ccccc2)c1=O)NCCc1ccncc1 [Example E-0050] | 0 |  |
| O=C(Cn1c(-c2ccc(-c3ccccc3)cc2)c(Cl)nc(NCCc2ccc(Cl)cc2)c1=O)NCCc1ccncc1 [Example E-0052] | 0 |  |
| O=C(Cn1c(-c2cccc(Cl)c2)c(Cl)nc(NCc2ccccc2)c1=O)NCCc1ccncc1 [Example E-0073] | 0 |  |
| O=C(Cn1c(-c2cccc(Cl)c2)c(Cl)nc(NCc2ccccc2)c1=O)NCCc1cccnc1 [Example E-0074] | 0 |  |
| O=C(Cn1c(-c2cccc(Cl)c2)c(Cl)nc(NCCc2ccccc2)c1=O)NCCc1ccncc1 [Example E-0076] | 0 |  |
| O=C(Cn1c(-c2cccc(Cl)c2)c(Cl)nc(NCCc2ccccc2)c1=O)NCCc1cccnc1 [Example E-0077] | 0 |  |
| O=C(Cn1c(-c2cccc(Cl)c2)c(Cl)nc(NCCc2cccc(Cl)c2)c1=O)NCCc1ccncc1 [Example E-0079] | 0 |  |

| Structure (SMILES) | % Inhibition TF-VIIa (100 µM) ([1]; 100 µM) [%] | further results |
| --- | --- | --- |
| O=C(Cn1c(-c2cccc(Cl)c2)c(Cl)nc(NCCc2cccc(Cl)c2)c1=O)NCCc1cccnc1 [Example E-0080] | 1 |  |
| O=C(Cn1c(-c2cccc(Cl)c2)c(Cl)nc(NCCc2ccc(Cl)cc2)c1=O)NCCc1ccncc1 [Example E-0082] | 4 |  |
| O=C(Cn1c(-c2cccc(Cl)c2)c(Cl)nc(NCCc2ccc(Cl)cc2)c1=O)NCCc1cccnc1 [Example E-0083] | 2 |  |
| O=C(Cn1c(-c2cccc(Cl)c2)c(Cl)nc(NCc2ccccc2)c1=O)NCCc1ccncc1 [Example E-0085] | 0 |  |
| O=C(Cn1c(-c2cccc(Cl)c2)c(Cl)nc(NCc2ccccc2)c1=O)NCCc1cccnc1 [Example E-0086] | 0 |  |
| O=C(Cn1c(-c2cccc(Cl)c2)c(Cl)nc(NCCc2ccccc2)c1=O)NCCc1ccncc1 [Example E-0088] | 0 |  |
| O=C(Cn1c(-c2cccc(Cl)c2)c(Cl)nc(NCCc2ccccc2)c1=O)NCCc1cccnc1 [Example E-0089] | 3 |  |
| O=C(Cn1c(-c2cccc(Cl)c2)c(Cl)nc(NCCc2cccc(Cl)c2)c1=O)NCCc1ccncc1 [Example E-0091] | 1 |  |
| O=C(Cn1c(-c2cccc(Cl)c2)c(Cl)nc(NCCc2cccc(Cl)c2)c1=O)NCCc1cccnc1 [Example E-0092] | 1 |  |
| O=C(Cn1c(-c2cccc(Cl)c2)c(Cl)nc(NCCc2ccc(Cl)cc2)c1=O)NCCc1ccncc1 [Example E-0094] | 2 |  |
| O=C(Cn1c(-c2cccc(Cl)c2)c(Cl)nc(NCCc2ccc(Cl)cc2)c1=O)NCCc1cccnc1 [Example E-0095] | 2 |  |
| COc1ccc(-c2c(Cl)nc(NCCc3cccc(Cl)c3)c(=O)n2CC(=O)NCCc2ccncc2)cc1 [Example E-0103] | 2 |  |
| COc1ccc(-c2c(Cl)nc(NCCc3ccc(Cl)cc3)c(=O)n2CC(=O)NCCc2ccncc2)cc1 [Example E-0106] | 5 |  |
| O=C(Cn1c(-c2ccc(-c3ccccc3)cc2)c(Cl)nc(NCc2ccccc2)c1=O)NCCc1ccncc1 [Example E-0109] | 2 |  |
| O=C(Cn1c(-c2ccc(-c3ccccc3)cc2)c(Cl)nc(NCCc2ccccc2)c1=O)NCCc1ccncc1 [Example E-0112] | 11 |  |
| O=C(Cn1c(-c2ccc(-c3ccccc3)cc2)c(Cl)nc(NCCc2cccc(Cl)c2)c1=O)NCCc1cccnc1 [Example E-0116] |  | % Inhibition Factor Xa (100 µM) [2]: 4% |
| O=C(Cn1c(-c2ccc(-c3ccccc3)cc2)c(Cl)nc(NCCc2ccc(Cl)cc2)c1=O)NCCc1ccncc1 [Example E-0118] | 12 |  |
| O=C(Cn1c(-c2ccc(-c3ccccc3)cc2)c(Cl)nc(NCCc2ccc(Cl)cc2)c1=O)NCCc1cccnc1 [Example E-0119] |  | % Inhibition Factor Xa (100 µM) [2]: 5% |
